Key:
[1] = molecular target: Human α2δ-1 subunit of Cav2.2 calcium channel (Homo sapiens, UniProt P54289); test: Binding assay to human α2δ-1 subunit of Cav2.2 calcium channel, [3H]-Gabapentin; conditions: human α2δ-1 enriched membranes, 15 nM [3H]-Gabapentin; read-out: Ki (nM) alpha2delta Hum
In short: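 Human α2δ-1-enriched membranes incubated with 15 nM [3H]-gabapentin in 10 mM Hepes-KOH pH 7.4, 60 min at 27 °C; nonspecific binding defined with 10 μM pregabalin. Bound ligand separated by filtration on PEI-presoaked GF/C filters, washed with ice-cold 50 mM Tris-HCl pH 7.4, counted by scintillation.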

[2] = molecular target: Human norepinephrine transporter (NET) (Homo sapiens, UniProt P23975); test: Binding assay to human norepinephrine transporter (NET), [3H]-Nisoxetin; conditions: human NET enriched membranes, 5 nM [3H]-Nisoxetin; read-out: Ki (nM) NET Hum
Sequence of Human norepinephrine transporter (NET) (P23975 whole entry): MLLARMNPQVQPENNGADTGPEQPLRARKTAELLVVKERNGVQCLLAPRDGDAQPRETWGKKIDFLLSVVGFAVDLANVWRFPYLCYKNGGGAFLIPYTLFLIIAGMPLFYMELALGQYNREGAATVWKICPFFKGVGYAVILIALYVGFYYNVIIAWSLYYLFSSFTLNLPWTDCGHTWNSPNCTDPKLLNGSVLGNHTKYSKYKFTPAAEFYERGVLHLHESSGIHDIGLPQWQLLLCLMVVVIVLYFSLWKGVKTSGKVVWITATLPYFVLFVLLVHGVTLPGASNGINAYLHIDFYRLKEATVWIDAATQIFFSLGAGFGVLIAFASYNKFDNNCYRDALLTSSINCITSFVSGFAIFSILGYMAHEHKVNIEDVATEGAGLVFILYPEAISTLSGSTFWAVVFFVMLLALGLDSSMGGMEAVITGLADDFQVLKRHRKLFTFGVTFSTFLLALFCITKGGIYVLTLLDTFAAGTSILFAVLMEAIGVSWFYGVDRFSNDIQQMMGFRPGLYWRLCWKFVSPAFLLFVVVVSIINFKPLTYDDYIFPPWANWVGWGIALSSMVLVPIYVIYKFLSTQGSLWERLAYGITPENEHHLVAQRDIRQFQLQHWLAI
In short: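 NET-enriched membranes (5 μg) incubated with 5 nM [3H]-nisoxetin in 50 mM Tris-HCl, 120 mM NaCl, 5 mM KCl, pH 7.4, for 60 min at 4 °C. Separation by filtration on PEI-soaked GF/C, then scintillation counting.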

Sequence of Human α2δ-1 subunit of Cav2.2 calcium channel (P54289 25-1103): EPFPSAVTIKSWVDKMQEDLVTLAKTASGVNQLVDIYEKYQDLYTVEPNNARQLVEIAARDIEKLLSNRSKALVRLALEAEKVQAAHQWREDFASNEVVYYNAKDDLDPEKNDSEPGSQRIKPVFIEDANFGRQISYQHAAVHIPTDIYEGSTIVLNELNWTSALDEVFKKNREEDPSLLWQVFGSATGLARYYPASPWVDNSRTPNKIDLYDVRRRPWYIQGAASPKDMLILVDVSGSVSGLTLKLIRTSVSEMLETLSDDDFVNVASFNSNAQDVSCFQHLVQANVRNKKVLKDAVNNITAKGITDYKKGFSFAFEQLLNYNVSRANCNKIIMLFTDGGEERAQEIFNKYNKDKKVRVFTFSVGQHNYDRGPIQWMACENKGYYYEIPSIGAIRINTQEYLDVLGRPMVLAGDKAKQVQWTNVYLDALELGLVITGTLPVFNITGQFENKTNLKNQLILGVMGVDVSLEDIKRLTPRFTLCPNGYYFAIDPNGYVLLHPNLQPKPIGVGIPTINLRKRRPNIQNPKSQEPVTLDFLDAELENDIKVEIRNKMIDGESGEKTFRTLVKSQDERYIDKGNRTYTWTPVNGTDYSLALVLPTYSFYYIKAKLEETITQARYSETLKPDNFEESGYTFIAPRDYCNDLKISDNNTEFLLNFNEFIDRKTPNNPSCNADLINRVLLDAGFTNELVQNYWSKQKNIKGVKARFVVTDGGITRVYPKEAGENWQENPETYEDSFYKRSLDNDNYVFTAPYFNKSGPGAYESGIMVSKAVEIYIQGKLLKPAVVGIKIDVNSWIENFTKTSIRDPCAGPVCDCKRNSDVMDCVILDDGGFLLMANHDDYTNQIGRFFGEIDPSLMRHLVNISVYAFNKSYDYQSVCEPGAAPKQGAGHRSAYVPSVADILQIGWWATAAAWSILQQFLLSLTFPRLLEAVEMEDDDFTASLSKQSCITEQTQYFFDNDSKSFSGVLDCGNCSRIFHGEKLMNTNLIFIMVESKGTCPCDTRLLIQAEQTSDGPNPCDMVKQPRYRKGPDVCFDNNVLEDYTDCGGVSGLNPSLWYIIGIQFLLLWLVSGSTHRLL

SMILES | Ki [1] [nM] | Ki [2] [nM]
NCCC(c1cccs1)N1CCc2ncccc21 (stereo not shown) [Example 9, 3-(2,3-Dihydro-1H-pyrrolo[3,2-b]pyridin-1-yl)-3-(thiophen-2-yl)propan-1-amine] | ≥ 3000 | > 1000
CNCCC(c1ccccc1)N1CCc2ncccc21 (stereo not shown) [Example 7, 3-(2,3-Dihydro-1H-pyrrolo[3,2-b]pyridin-1-yl)-N-methyl-3-phenylpropan-1-amine] | ≥ 3000 | 500 to 1000
CNCC[C@@H](c1cccs1)N1CCc2ncccc21 [Example 16, (S)-3-(2,3-Dihydro-1H-pyrrolo[3,2-b]pyridin-1-yl)-N-methyl-3-(thiophen-2-yl)propan-1-amine] | 100 to 500 | 100 to 500
CNCC[C@@H](c1ccc(C)s1)N1CCc2ncccc21 [Example 45, (S)-3-(2,3-Dihydro-1H-pyrrolo[3,2-b]pyridin-1-yl)-N-methyl-3-(5-methylthiophen-2-yl)propan-1-amine] | 500 to 3000 | > 1000
CCc1cnc2c(c1)N([C@@H](CCNC)c1ccsc1)CC2 [Example 77, (S)-3-(6-Ethyl-2,3-dihydro-1H-pyrrolo[3,2-b]pyridin-1-yl)-N-methyl-3-(thiophen-3-yl)propan-1-amine] | 500 to 3000 | 100 to 500
CNCC[C@H](c1ccc(C)s1)N1CCc2ncccc21 [Example 44, (R)-3-(2,3-Dihydro-1H-pyrrolo[3,2-b]pyridin-1-yl)-N-methyl-3-(5-methylthiophen-2-yl)propan-1-amine] | 500 to 3000 | > 1000
CNCCC(c1cccs1)N1CCCc2ncccc21 (stereo not shown) [Example 5, 3-(3,4-Dihydro-1,5-naphthyridin-1(2H)-yl)-N-methyl-3-(thiophen-2-yl)propan-1-amine] | 100 to 500 | > 1000
CNCC[C@@H](c1ccsc1)N1CC(C)(C)c2nc(C)c(F)cc21 [Example 89, (S)-3-(6-Fluoro-3,3,5-trimethyl-2,3-dihydro-1H-pyrrolo[3,2-b]pyridin-1-yl)-N-methyl-3-(thiophen-3-yl)propan-1-amine] | 100 to 500 | 100 to 500

The next lines start with the values.

Ki [1] [nM] | Ki [2] [nM] | SMILES
100 to 500 | > 1000 | CNCC[C@H](c1ccsc1)N1CC(C)(C)c2ncc(C)cc21 [Example 60, (R)-N-methyl-3-(thiophen-3-yl)-3-(3,3,6-trimethyl-2,3-dihydro-1H-pyrrolo[3,2-b]pyridin-1-yl)propan-1-amine]
500 to 3000 | > 1000 | CNCC[C@@H](c1cccs1)N1CC(C)(C)c2ncc(F)cc21 [Example 105, (S)-3-(6-Fluoro-3,3-dimethyl-2,3-dihydro-1H-pyrrolo[3,2-b]pyridin-1-yl)-N-methyl-3-(thiophen-2-yl)propan-1-amine]
≥ 3000 | > 1000 | CNCC[C@@H](c1cccs1)N1CCc2ncc(C(C)C)cc21 [Example 38, (S)-3-(6-Isopropyl-2,3-dihydro-1H-pyrrolo[3,2-b]pyridin-1-yl)-N-methyl-3-(thiophen-2-yl)propan-1-amine]
< 100 | > 1000 | CNCCC(c1cccs1)N1CC(C)(C)c2ncc(C)cc21 (racemic) [Example 81, N-methyl-3-(thiophen-2-yl)-3-(3,3,6-trimethyl-2,3-dihydro-1H-pyrrolo[3,2-b]pyridin-1-yl)propan-1-amine]
< 100 | > 1000 | CNCCC(c1cccs1)N1CC(C)(C)c2ncc(C#N)cc21 (stereo not shown) [Example 97, 3,3-Dimethyl-1-(3-(methylamino)-1-(thiophen-2-yl)propyl)-2,3-dihydro-1H-pyrrolo[3,2-b]pyridine-6-carbonitrile]
100 to 500 | > 1000 | CNCCC(c1cccs1)N1CC(C)(C)c2ncc(Cl)cc21 (stereo not shown) [Example 73, 3-(6-Chloro-3,3-dimethyl-2,3-dihydro-1H-pyrrolo[3,2-b]pyridin-1-yl)-N-methyl-3-(thiophen-2-yl)propan-1-amine]
< 100 | > 1000 | CNCCC(c1cccs1)N1CC(C)(C)c2c(C#N)cccc21 (stereo not shown) [Example 100, 3,3-Dimethyl-1-(3-(methylamino)-1-(thiophen-2-yl)propyl)indoline-4-carbonitrile]
100 to 500 | > 1000 | CNCCC(c1cccs1)N1CC(C)(C)c2nc(C(F)(F)F)ccc21 (stereo not shown) [Example 75, 3-(3,3-Dimethyl-5-(trif1uoromethyl)-2,3-dihydro-1H-pyrrolo[3,2-b]pyridin-1-yl)-N-methyl-3-(thiophen-2-yl)propan-1-amine]
< 100 | 100 to 500 | CNCCC(c1cccs1)N1CC(C)(C)c2nc(C)ccc21 (stereo not shown) [Example 64, N-methyl-3-(thiophen-2-yl)-3-(3,3,5-trimethyl-2,3-dihydro-1H-pyrrolo[3,2-b]pyridin-1-yl)propan-1-amine]

From US20200207759A1, “NEW PROPANAMINE DERIVATIVES FOR TREATING PAIN AND PAIN RELATED CONDITIONS” (ESTEVE PHARMACEUTICALS, S.A., priority 2017, published 2020)
